According to the supplement of paper PMC10307832:

Legend:
Test in all cases: relative viability (nuclei count vs DMSO), 5 days (fraction); higher = more cells survive
BAY61-3606 + Olaparib = compound: COC1=C(C=C(C=C1)C2=CC3=NC=CN3C(=N2)NC4=C(C=CC=N4)C(=O)N)OC [BAY61-3606] + O=C(c1cc(Cc2n[nH]c(=O)c3ccccc23)ccc1F)N1CCN(C(=O)C2CC2)CC1 [Olaparib] (partner 8 µM)
Procedure, shortened: (§1)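 One day after seeding in 1536-well plates, lung cancer cell lines were dosed by pin tool. Dosing was either single-drug or a fixed anchor-drug dose plus five library-drug doses (not always all listed) in √10 steps. After 5 days, nuclei were stained in one fix-and-stain step and counted on 4× images, and relative viability is the nuclei count of treated wells over that of vehicle wells, given as the median of duplicate plates.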

Doxorubicin + Pictilisib = compound: COc1cccc2c1C(=O)c1c(O)c3c(c(O)c1C2=O)C[C@@](O)(C(=O)CO)C[C@@H]3O[C@H]1C[C@H](N)[C@H](O)[C@H](C)O1 [Doxorubicin] + CS(=O)(=O)N1CCN(Cc2cc3nc(-c4cccc5[nH]ncc45)nc(N4CCOCC4)c3s2)CC1 [Pictilisib] (partner 1 µM)
Procedure, shortened: as §1

BAY61-3606 + Luminespib = compound: COC1=C(C=C(C=C1)C2=CC3=NC=CN3C(=N2)NC4=C(C=CC=N4)C(=O)N)OC [BAY61-3606] + CCNC(=O)c1noc(-c2cc(C(C)C)c(O)cc2O)c1-c1ccc(CN2CCOCC2)cc1 [Luminespib] (partner 0.01 µM)
Procedure, shortened: as §1

Doxorubicin + AZD7762 = compound: COc1cccc2c1C(=O)c1c(O)c3c(c(O)c1C2=O)C[C@@](O)(C(=O)CO)C[C@@H]3O[C@H]1C[C@H](N)[C@H](O)[C@H](C)O1 [Doxorubicin] + NC(=O)Nc1cc(-c2cccc(F)c2)sc1C(=O)N[C@H]1CCCNC1 [AZD7762] (partner 0.2 µM)
Procedure, shortened: as §1

Cell Line	relative viability (BAY61-3606 + Olaparib; first compound 0.02 µM)	relative viability (BAY61-3606 + Olaparib; first compound 0.06325 µM)	relative viability (BAY61-3606 + Olaparib; first compound 0.2 µM)	relative viability (BAY61-3606 + Olaparib; first compound 0.6325 µM)	relative viability (BAY61-3606 + Olaparib; first compound 2 µM)	relative viability (Doxorubicin + Pictilisib; first compound 0.001 µM)	relative viability (Doxorubicin + Pictilisib; first compound 0.003162 µM)	relative viability (Doxorubicin + Pictilisib; first compound 0.01 µM)	relative viability (Doxorubicin + Pictilisib; first compound 0.03162 µM)	relative viability (Doxorubicin + Pictilisib; first compound 0.1 µM)	relative viability (BAY61-3606 + Luminespib; first compound 0.02 µM)	relative viability (BAY61-3606 + Luminespib; first compound 0.06325 µM)	relative viability (BAY61-3606 + Luminespib; first compound 0.2 µM)	relative viability (BAY61-3606 + Luminespib; first compound 0.6325 µM)	relative viability (BAY61-3606 + Luminespib; first compound 2 µM)	relative viability (Doxorubicin + AZD7762; first compound 0.001 µM)	relative viability (Doxorubicin + AZD7762; first compound 0.003162 µM)	relative viability (Doxorubicin + AZD7762; first compound 0.01 µM)	relative viability (Doxorubicin + AZD7762; first compound 0.03162 µM)	relative viability (Doxorubicin + AZD7762; first compound 0.1 µM)
IA-LM	1.02	0.864	0.816	0.85	0.68	0.287	0.341	0.254	0.0936	0.0491										
SW 1573	0.553	0.455	0.424	0.542	0.259	0.512	0.46	0.424	0.332	0.258	0.192	0.204	0.197	0.214	0.204					
NCI-H520	0.359	0.325	0.383	0.391	0.274	0.264	0.326	0.228	0.239	0.191	0.216	0.237	0.258	0.231	0.223					
SK-LU-1	0.599	0.458	0.646	0.429	0.355	0.571	0.562	0.434	0.324	0.303	0.182	0.224	0.188	0.2	0.173					
COR-L23	0.343	0.356	0.411	0.353	0.269	0.928	1.04	0.651	0.199	0.121	0.672	0.728	0.674	0.806	0.372					
COR-L 105	0.741	0.658	0.603	0.787	0.584	0.463	0.444	0.355	0.283	0.277	0.827	0.689	0.75	0.76	0.503					
NCI-H1299	1	0.987	0.983	0.967	0.936	0.799	0.762	0.699	0.273	0.196										
NCI-H1703	0.626	0.383	0.448	0.541	0.276	0.258	0.227	0.189	0.177	0.136						0.131	0.146	0.146	0.119	0.114
NCI-H2228	0.879	0.73	0.889	0.693	0.412	0.154	0.272	0.295	0.153	0.117	0.13	0.175	0.125	0.199	0.177					
NCI-H2009	0.714	0.639	0.864	0.713	0.592	0.712	0.777	0.719	0.535	0.282	1.08	1.04	0.976	0.992	0.902					
NCI-H661	0.737	0.75	0.679	0.762	0.691	0.399	0.412	0.378	0.452	0.324	0.902	0.917	0.867	0.879	0.823					
NCI-H2342	0.352	0.406	0.399	0.495	0.432						0.895	0.719	0.711	0.751	0.797	0.522	0.491	0.485	0.426	0.496
NCI-H2023	0.515	0.623	0.481	0.496	0.257	0.169	0.248	0.192	0.104	0.0731	0.885	0.614	0.669	0.778	0.535					
SW 900	0.881			0.856	0.573						0.172	0.188	0.179	0.219	0.162		0.647	0.604	0.45	0.358
NCI-H1563						0.585	0.602	0.62	0.541	0.532	0.528	0.558	0.531	0.54	0.502					
NCI-H1648	0.766	0.982	0.736		0.765											0.762	0.524	0.741	0.843	0.654
NCI-H522	0.768	0.618	0.644	0.654	0.53						1.05	1.13	1.16	1.12	0.89	0.7	0.745	0.967	0.656	0.918
A549	0.332	0.377	0.217	0.312	0.336	0.49	0.355	0.201	0.0558	0.0454										
NCI-H1650	0.86	0.924	0.768	0.806	0.674	0.29	0.371	0.241	0.159	0.119	0.182	0.184	0.191	0.203	0.208					
